Data from PubChem BioAssay (NCI).
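Exposure lasted 48 hours, with cells grown in 96-well plates and compounds tested at five concentrations. Here, GI50 denotes the concentration required for 50% inhibition of growth. TGI: concentration producing complete growth inhibition.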

Assays:
Assay in all cases: growth of human tumour cells (NCI), 48 h
SK-OV-3 ovarian = test system: SK-OV-3 ovarian
NCI-H226 lung = test system: NCI-H226 lung
SN12C renal = test system: SN12C renal
HS 578T breast = test system: HS 578T breast
OVCAR-8 ovarian = test system: OVCAR-8 ovarian
786-0 renal = test system: 786-0 renal
SK-MEL-2 melanoma = test system: SK-MEL-2 melanoma
PC-3 prostate = test system: PC-3 prostate
SNB-19 CNS = test system: SNB-19 CNS
BT-549 breast = test system: BT-549 breast

| Structure (SMILES) | TGI (SK-OV-3 ovarian) | TGI (NCI-H226 lung) | TGI (SN12C renal) | TGI (HS 578T breast) | TGI (OVCAR-8 ovarian) | TGI (786-0 renal) | TGI (SK-MEL-2 melanoma) | TGI (PC-3 prostate) | TGI (SNB-19 CNS) | TGI (BT-549 breast) | GI50 (SK-OV-3 ovarian) | GI50 (SN12C renal) | GI50 (HS 578T breast) | GI50 (OVCAR-8 ovarian) | GI50 (786-0 renal) | GI50 (SK-MEL-2 melanoma) | GI50 (PC-3 prostate) | GI50 (BT-549 breast) | GI50 (SNB-19 CNS) |
| --- | --- | --- | --- | --- | --- | --- | --- | --- | --- | --- | --- | --- | --- | --- | --- | --- | --- | --- | --- |
| O=C1OC(OC/C(Br)=C(/Br)COC2OC(=O)C(Cl)=C2Cl)C(Cl)=C1Cl (stereo not drawn) | > 55.8 µM | > 70.7 µM | 22.6 µM | 64.7 µM | > 58 µM | 14.1 µM | 44.8 µM | 30.2 µM | 37 µM | – | – | – | – | – | – | – | – | – | – |
| O=C(O)C1CC2CC(=O)C1C2 (stereo not drawn) | > 100 µM | > 100 µM | > 100 µM | – | > 100 µM | > 100 µM | > 100 µM | – | > 100 µM | – | – | – | – | – | – | – | – | – | – |
| O=C(CC(=O)c1ccccc1)C(=O)NC12CC3CC(CC(C3)C1)C2 | > 100 µM | > 100 µM | > 100 µM | – | > 100 µM | 99.7 µM | > 100 µM | – | > 100 µM | – | – | – | – | – | – | – | – | – | – |
| O=C(CC(=O)C1CCOC1=O)C(=O)Nc1ccc(Cl)cc1 (stereo not drawn) | > 100 µM | > 100 µM | > 100 µM | – | > 100 µM | > 100 µM | > 100 µM | – | > 100 µM | – | – | – | – | – | – | – | – | – | – |
| O=c1[nH]cnc2c1ncn2CCCCO | – | > 100 µM | > 100 µM | – | > 100 µM | > 100 µM | – | – | > 100 µM | – | – | – | – | – | – | – | – | – | – |
| Cc1cccc(N=C2NC(=O)C(CC(=O)Nc3ccccc3Cl)S2)c1 (stereo not drawn) | – | > 100 µM | > 100 µM | – | > 100 µM | > 100 µM | > 100 µM | – | > 100 µM | – | – | – | – | – | – | – | – | – | – |
| OC1c2ccccc2C2C(O)c3ccccc3C12 (stereo not drawn) | > 100 µM | – | > 100 µM | – | > 100 µM | > 100 µM | > 100 µM | – | – | – | – | – | – | – | – | – | – | – | – |
| COc1cc(/C=C\c2ccc(Cl)cc2)cc(OC)c1OC | 89.3 µM | 6.84 µM | > 100 µM | – | > 100 µM | 20.3 µM | 16.3 µM | – | > 100 µM | – | – | – | – | – | – | – | – | – | – |
| CC(C)=CCc1cc(C2COc3cc4c(c(O)c3C2=O)C=CC(C)(C)O4)c(O)cc1O (stereo not drawn) | 29.8 µM | – | 26.3 µM | 39.9 µM | 51.2 µM | 36.7 µM | 31.7 µM | 24.9 µM | 40.7 µM | 33.3 µM | – | – | – | – | – | – | – | – | – |
| COC1C(O)C(C)OC(O[C@@H]2C[C@H]3CC[C@@H]4[C@H](CC[C@]5(C)[C@@H](C6=CC(=O)OC6)CC[C@]45O)[C@@]3(C)[C@H](O)C2)C1O (stereo partly drawn) | 0.347 µM | 0.532 µM | 0.0591 µM | > 100 µM | 0.268 µM | > 100 µM | 1.7 µM | – | 1.26 µM | 0.159 µM | – | – | – | – | – | – | – | – | – |
| Cc1cn(Cc2ccccc2CCl)c(=O)n(Cc2ccccc2CCl)c1=O | 9.62 µM | – | 6.97 µM | 15.1 µM | 5.69 µM | 3.39 µM | 4.29 µM | 3.91 µM | 6.66 µM | 3.52 µM | 3.27 µM | 2.65 µM | 2.65 µM | 2.39 µM | 1.67 µM | 1.32 µM | 1.83 µM | 1.85 µM | 2.57 µM |
| O=C1NN=C(c2ccc([N+](=O)[O-])cc2)C1n1nc(-c2ccccc2)c2ccccc2c1=O (stereo not drawn) | > 100 µM | > 100 µM | > 100 µM | – | > 100 µM | > 100 µM | > 100 µM | – | > 100 µM | – | – | – | – | – | – | – | – | – | – |
| CCCCCCCCCCCCCCCCCc1nnc(N)o1 | > 100 µM | > 100 µM | > 100 µM | – | > 100 µM | > 100 µM | > 100 µM | – | > 100 µM | – | – | – | – | – | – | – | – | – | – |
